Square brackets hold non-standard residues; d marks the D form. Ends that are not written are not given here. Peptide text beside a SMILES is read from it. * marks the point of attachment. hArg = N=C(N)NCCCC[C@H](N)C(=O)O; Octanoyl = CCCCCCCC(=O)*
Key:
Test in all cases: Anaerobic antimicrobial susceptibility test (MIC)
Format in all cases: cell-based
P. gingivalis = details: 37° C., 24-48 hours; for MIC P. gingivalis (strain) W50: strain W50, BHI broth; for MIC P. gingivalis (strain) 9-14K-1: strain 9-14K-1, BHI broth; for MIC P. gingivalis (strain) 381: strain 381, BHI broth; for MIC P. gingivalis (strain) A7A1-28: strain A7A1-28, BHI broth; for MIC P. gingivalis (strain) FAY-19M-1: strain FAY-19M-1, BHI broth
S. mutans = details: BHI broth, 37° C., 24-48 hours
A. viscosus = details: BHI broth, 37° C., 24-48 hours

Compound	MIC P. gingivalis (strain) W50 (P. gingivalis) [μl/ml]	MIC S. mutans (S. mutans) [μl/ml]	MIC A. viscos (A. viscosus) [μl/ml]	MIC P. gingivalis (strain) 9-14K-1 (P. gingivalis) [μl/ml]	MIC P. gingivalis (strain) 381 (P. gingivalis) [μl/ml]	MIC P. gingivalis (strain) A7A1-28 (P. gingivalis)	MIC P. gingivalis (strain) FAY-19M-1 (P. gingivalis) [μl/ml]
CC[C@H](C)[C@H](NC(=O)[C@H](CCCCNC(=N)N)NC(=O)CNC(=O)[C@H](C)NC(=O)[C@@H](NC(=O)[C@H](CCCCNC(=N)N)NC(=O)[C@H](C)NC(=O)[C@@H](NC(=O)[C@H](CCCCNC(=N)N)NC(=O)CNC(=O)[C@H](C)NC(=O)[C@@H](NC(=O)[C@H](CCCCNC(=N)N)NC(=O)[C@H](C)NC(=O)[C@@H](NC(=O)[C@H](CCCCNC(=N)N)NC(=O)CNC(=O)[C@H](C)NC(=O)[C@@H](NC(=O)[C@@H](N)CCCCNC(=N)N)[C@@H](C)CC)[C@@H](C)CC)[C@@H](C)CC)[C@@H](C)CC)[C@@H](C)CC)C(=O)N[C@@H](C)C(N)=O [(SEQ ID NO: 66)-NH2] (H-[hArg]IAG[hArg]IA[hArg]IAG[hArg]IA[hArg]IAG[hArg]IA-NH2)	4	–	–	–	–	–	–
CCCCCCCC(=O)N[C@@H](CCCCN)C(=O)N[C@H](C(=O)N[C@@H](C)C(=O)NCC(=O)N[C@@H](CCCCN)C(=O)N[C@H](C(=O)N[C@@H](C)C(=O)N[C@@H](CCCCN)C(=O)N[C@H](C(=O)N[C@@H](C)C(=O)NCC(=O)N[C@@H](CCCCN)C(=O)N[C@H](C(=O)N[C@@H](C)C(=O)N[C@@H](CCCCN)C(=O)N[C@H](C(=O)N[C@@H](C)C(=O)NCC(=O)N[C@@H](CCCCN)C(=O)N[C@H](C(=O)N[C@@H](C)C(=O)O)[C@@H](C)CC)[C@@H](C)CC)[C@@H](C)CC)[C@@H](C)CC)[C@@H](C)CC)[C@@H](C)CC [Oct-(SEQ ID NO: 27)-OH] (Octanoyl-KIAGKIAKIAGKIAKIAGKIA-OH)	1	–	–	–	–	–	–
KIAGKIAKIAGKIAKIAGKIA-NH2 [(SEQ ID NO: 27)-NH2]	4	–	–	–	–	–	–
CCCCCCCC(=O)N[C@@H](CCCCN)C(=O)N[C@H](C(=O)N[C@@H](C)C(=O)N[C@@H](CCCCN)C(=O)N[C@@H](CCCCN)C(=O)N[C@H](C(=O)N[C@@H](C)C(=O)N[C@@H](CCCCN)C(=O)N[C@H](C(=O)N[C@@H](C)C(=O)N[C@@H](CCCCN)C(=O)N[C@@H](CCCCN)C(=O)N[C@H](C(=O)N[C@@H](C)C(=O)N[C@@H](CCCCN)C(=O)N[C@H](C(=O)N[C@@H](C)C(=O)N[C@@H](CCCCN)C(=O)N[C@@H](CCCCN)C(=O)N[C@H](C(=O)N[C@@H](C)C(=O)O)[C@@H](C)CC)[C@@H](C)CC)[C@@H](C)CC)[C@@H](C)CC)[C@@H](C)CC)[C@@H](C)CC [Oct-(SEQ ID NO: 86)-OH] (Octanoyl-KIAKKIAKIAKKIAKIAKKIA-OH)	1	–	–	–	–	–	–
KIAKKIAKIAKKIAKIAKKIA-NH2 [(SEQ ID NO: 86)-NH2]	4	4	16	8	8	2 μl/ml	–
(SEQ ID NO: 86)-OH: (Lys Ile Ala Lys Lys Ile Ala)3 unsubstituted at the N-terminal, C-terminal OH (H-KIAKKIAKIAKKIAKIAKKIA-OH)	4	16	32	16	16	4 μl/ml	8
KVALKALKKVALKALKVALKAL-NH2 [(SEQ ID NO: 152)-NH2]	4	16	16	4	32	4,8 μl/ml	8
CCCCCCCC(=O)N[C@@H](CCCCNC(=N)N)C(=O)N[C@H](C(=O)N[C@@H](C)C(=O)NCC(=O)N[C@@H](CCCCNC(=N)N)C(=O)N[C@H](C(=O)N[C@@H](C)C(=O)N[C@@H](CCCCNC(=N)N)C(=O)N[C@H](C(=O)N[C@@H](C)C(=O)NCC(=O)N[C@@H](CCCCNC(=N)N)C(=O)N[C@H](C(=O)N[C@@H](C)C(=O)N[C@@H](CCCCNC(=N)N)C(=O)N[C@H](C(=O)N[C@@H](C)C(=O)NCC(=O)N[C@@H](CCCCNC(=N)N)C(=O)N[C@H](C(=O)N[C@@H](C)C(N)=O)[C@@H](C)CC)[C@@H](C)CC)[C@@H](C)CC)[C@@H](C)CC)[C@@H](C)CC)[C@@H](C)CC [Oct-(SEQ ID NO: 66)-NH2] (Octanoyl-[hArg]IAG[hArg]IA[hArg]IAG[hArg]IA[hArg]IAG[hArg]IA-NH2)	2	–	–	–	–	–	–
CCCCCCCC(=O)N[C@@H](CCCCN)C(=O)N[C@H](C(=O)N[C@@H](C)C(=O)NCC(=O)N[C@@H](CCCCN)C(=O)N[C@H](C(=O)N[C@@H](C)C(=O)N[C@@H](CCCCN)C(=O)N[C@H](C(=O)N[C@@H](C)C(=O)NCC(=O)N[C@@H](CCCCN)C(=O)N[C@H](C(=O)N[C@@H](C)C(=O)N[C@@H](CCCCN)C(=O)N[C@H](C(=O)N[C@@H](C)C(=O)NCC(=O)N[C@@H](CCCCN)C(=O)N[C@H](C(=O)N[C@@H](C)C(N)=O)[C@@H](C)CC)[C@@H](C)CC)[C@@H](C)CC)[C@@H](C)CC)[C@@H](C)CC)[C@@H](C)CC [Oct-(SEQ ID NO: 27)-NH2] (Octanoyl-KIAGKIAKIAGKIAKIAGKIA-NH2)	16	–	–	–	–	–	–
